Test results as given in patent US5338874A, “Cis oxalato (trans 1-1,2-cyclohexanediamine) PT(II) having optically high purity” (Tanaka Kikinzoku Kogyo K.K., priority 1993, dated 1994).

Tested on: L1210
Experiment: Tumor resistance against L1210 (i.p. transplanted, CDF1 mice), T/C
Type: in vivo
Design: key to Toxic mark (T: large weight loss): P: Effective (Over 125%); Toxic (Large Weight Loss)
Settings: for Cured mice out of six / Toxic mark (T: large weight loss): i.p. on days 1, 5 and 9
Method: The test was conducted by prescribing L1210 in a peritoneal cavity of six CDF1 mice/one group (the number of transplanted cells is […] per mouse and prescribing the medicine in the poritoncal cavity on a first day, a fifth day and a ninth day.

SMILES | Cured mice out of six (6.25 mg/kg) | Cured mice out of six (12.5 mg/kg) | Toxic mark (T: large weight loss) (25 mg/kg) | Tumor Resistance T/C (%) (25 mg/kg, i.p. on days 1, 5 and 9, six CDF1 mice/group) | Cured mice out of six (6.25 mg/kg, listed as Example 2) | Cured mice out of six (6.25 mg/kg, listed as Example 3) | Cured mice out of six (12.5 mg/kg, listed as Example 2) | Cured mice out of six (12.5 mg/kg, listed as Example 3) | Activity against tumor leukemia L1210 (in words) (high optical purity compound)
N[C@@H]1CCCC[C@H]1N.O=C([O-])C(=O)[O-].[Pt+2] (relative stereo) [Comp. Ex., cis-oxalate(trans-1-1,2-cyclohexanediamine) Pt(II), reference compound] | 1/6 | 4/6 | T | 81 |  |  |  |  | 
N[C@@H]1CCCC[C@H]1N.O=C([O-])C(=O)[O-].[Pt+2] (relative stereo) [Example 1, cis-oxalato (trans-1-1,2-cyclohexanediamine) Pt(II)] | 3/6 | 2/6 | T |  | 3/6 | 3/6 | 2/6 | 2/6 | active against a tumor "leukomia L1210"
